Reference: patent publication US20220386606A1, “SPECIFICALLY SUBSTITUTED 3-PHENYL-5-SPIROCYCLOPENTYL-3-PYRROLIN-2-ONES AND THEIR USE AS HERBICIDES” (Bayer Aktiengesellschaft, priority 2019, published 2022)

What was measured:
ABUTH [1] = assay: Pre-emergence herbicidal action against ABUTH; type: in vivo, Abutylon threophrasti; conditions: 320 g/ha
Excerpt: Seeds of monocotyledonous and dicotyledonous weed plants and crop plants are laid out in sandy loam soil in wood-fiber pots and covered with soil. The compounds of the invention, formulated in the form of wettable powders (WP) or as emulsion concentrates (EC), are then applied to the surface of the covering soil as aqueous suspension or emulsion at a water application rate equating to 600 to 800 L/ha with addition of 0.2% wetting agent.
After the treatment, the pots are placed in a greenhouse and kept under good growth conditions for the trial plants. The damage to the test plants is scored visually after a test period of 3 weeks by comparison with untreated controls (herbicidal activity in percent (%): 100% activity=the plants have died, 0% activity=like control plants).

ABUTH [2] = assay: Post-emergence herbicidal action against ABUTH; type: in vivo, Abutylon threophrasti; conditions: 80 g/ha, visual assessment about 3 weeks after treatment vs untreated controls
Procedure, shortened: (§1)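 Weeds and crops grown in sandy loam in the greenhouse, treated post-emergence at the one-leaf stage (2–3 weeks after sowing). WP or EC formulations sprayed as aqueous suspension/emulsion at 600–800 l/ha water with 0.2% wetting agent. Visual % activity scored after about 3 weeks versus untreated controls (100% = dead, 0% = like control).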

ALOMY [3] = assay: Pre-emergence herbicidal action against ALOMY; type: in vivo, Alopecurus myosuroides; conditions: 320 g/ha, scored visually after 3 weeks vs untreated controls
Procedure, shortened: (§2)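 Sandy loam, wood-fiber pots, seeds covered with soil. Spray onto soil surface: aqueous WP/EC, 600 to 800 L/ha, 0.2% wetting agent. Greenhouse 3 weeks; visual % score vs untreated controls.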

LOLRI [4] = assay: Pre-emergence herbicidal action against LOLRI (Table 8, titled post-emergence at 320 g/ha); type: in vivo, Lolium rigidum; conditions: table stands in the pre-emergence section
Procedure, shortened: as §2

VIOTR [5] = assay: Pre-emergence herbicidal action against VIOTR; type: in vivo, Viola tricolor; conditions: 320 g/ha
Procedure, shortened: as §2

DIGSA [6] = assay: Post-emergence herbicidal action against DIGSA; type: in vivo, Digitaria sanguinalis; conditions: 80 g/ha, visual assessment about 3 weeks after treatment vs untreated controls
Procedure, shortened: as §1

POLCO = assay: Pre-emergence herbicidal action against POLCO; type: in vivo, Polygonum convolvulus; conditions: 320 g/ha
Procedure, shortened: as §2

ALOMY [7] = assay: Post-emergence herbicidal action against ALOMY; type: in vivo, Alopecurus myosuroides; conditions: 80 g/ha, visual assessment after about 3 weeks
Procedure, shortened: as §1

LOLRI [8] = assay: Post-emergence herbicidal action against LOLRI; type: in vivo, Lolium rigidum; conditions: 80 g/ha, visual assessment about 3 weeks after treatment vs untreated controls
Procedure, shortened: as §1

AVEFA [9] = assay: Pre-emergence herbicidal action against AVEFA; type: in vivo, Avena fatua; conditions: 320 g/ha, scored visually after 3 weeks vs untreated controls
Procedure, shortened: as §2

VERPE = assay: Pre-emergence herbicidal action against VERPE; type: in vivo, Veronica persica; conditions: 320 g/ha
Procedure, shortened: as §2

ECHCG [10] = assay: Post-emergence herbicidal action against ECHCG; type: in vivo, Echinochloa crus-galli; conditions: 80 g/ha, visual assessment about 3 weeks after treatment vs untreated controls
Procedure, shortened: as §1

DIGSA [11] = assay: Pre-emergence herbicidal action against DIGSA; type: in vivo, Digitaria sanguinalis; conditions: 320 g/ha, scored visually after 3 weeks vs untreated controls
Procedure, shortened: as §2

SETVI [12] = assay: Pre-emergence herbicidal action against SETVI; type: in vivo, Setaria viridis; conditions: 320 g/ha, scored visually after 3 weeks vs untreated controls
Procedure, shortened: as §2

SETVI [13] = assay: Post-emergence herbicidal action against SETVI; type: in vivo, Setaria viridis; conditions: 80 g/ha, visual assessment about 3 weeks after treatment vs untreated controls
Procedure, shortened: as §1

MATIN = assay: Pre-emergence herbicidal action against MATIN; type: in vivo; conditions: 320 g/ha
Procedure, shortened: as §2

ECHCG [14] = assay: Pre-emergence herbicidal action against ECHCG; type: in vivo, Echinochloa crus-galli; conditions: 320 g/ha, scored visually after 3 weeks vs untreated controls
Procedure, shortened: as §2

VIOTR [15] = assay: Post-emergence herbicidal action against VIOTR; type: in vivo, Viola tricolor; conditions: 80 g/ha, visual assessment about 3 weeks after treatment vs untreated controls
Protocol: Seeds of monocotyledonous and dicotyledonous weed and crop plants are laid out in sandy loam soil in wood-fiber pots, covered with soil and cultivated in a greenhouse under good growth conditions. 2 to 3 weeks after sowing, the test plants are treated at the one-leaf stage. The compounds of the invention, formulated in the form of wettable powders (WP) or as emulsion concentrates (EC), are then sprayed onto the green parts of the plants as aqueous suspension or emulsion at a water application rate equating to 600 to 800 l/ha with addition of 0.2% wetting agent. After the test plants have been left to stand in the greenhouse under optimal growth conditions for about 3 weeks, the action of the preparations is assessed visually in comparison to untreated controls (herbicidal action in percent (%): 100% activity=the plants have died, 0% activity=like control plants).

AMARE = assay: Pre-emergence herbicidal action against AMARE; type: in vivo, Amaranthus retroflexus; conditions: 320 g/ha
Procedure, shortened: as §2

AVEFA [16] = assay: Post-emergence herbicidal action against AVEFA; type: in vivo, Avena fatua; conditions: 80 g/ha, visual assessment after about 3 weeks
Procedure, shortened: as §1

Structure (SMILES)	Pre-emergence action against ABUTH in % (ABUTH [1])	Post-emergence action against ABUTH in % (ABUTH [2])	Pre-emergence action against ALOMY in % (ALOMY [3])	Pre-emergence herbicidal action against LOLRI in % (LOLRI [4])	Pre-emergence action against VIOTR in % (VIOTR [5])	Post-emergence action against DIGSA in % (DIGSA [6])	Pre-emergence action against POLCO in % (POLCO)	Post-emergence action against ALOMY in % (ALOMY [7])	Post-emergence action against LOLRI in % (LOLRI [8])	Pre-emergence action against AVEFA in % (AVEFA [9])	Pre-emergence action against VERPE in % (VERPE)	Post-emergence action against ECHCG in % (ECHCG [10])	Pre-emergence action against DIGSA in % (DIGSA [11])	Pre-emergence action against SETVI in % (SETVI [12])	Post-emergence action against SETVI in % (SETVI [13])	Pre-emergence action against MATIN in % (MATIN)	Pre-emergence action against ECHCG in % (ECHCG [14])	Post-emergence action against VIOTR in % (VIOTR [15])	Pre-emergence action against AMARE in % (AMARE)	Post-emergence action against AVEFA in % (AVEFA [16])
CC#Cc1cc(Br)c(C2=C(OC(=O)OCC)C3(CCC(COC)C3)NC2=O)c(OC)c1 (centres unmarked) [Example P-08]	80%	80%	100%	100%	90%	100%	100%	100%	100%	100%	90%	100%	100%	100%	100%	80%	100%			
CC#Cc1cc(F)c(C2=C(OC(=O)OCC)C3(CCC(COCCC)C3)NC2=O)c(OC)c1 (centres unmarked) [Example P-82]			100%	100%	90%	90%	100%	100%	100%	90%		100%	100%	100%	100%		100%	80%	90%	
CC#Cc1cc(C)c(C2=C(O)C3(CCC(COC)C3)NC2=O)c(Br)c1 (centres unmarked) [Example I-18]	80%	80%	100%	100%	100%	100%	100%	100%	100%	100%		100%	100%	100%	100%		100%		100%	100%
CC#Cc1cc(C)c(C2=C(OC(=O)C(C)C)C3(CCC(COC)C3)NC2=O)c(Br)c1 (centres unmarked) [Example P-32]	80%	90%	100%	100%	100%	100%	80%	100%	100%	90%	90%	100%	100%	100%	100%	80%	100%		90%	90%
CC#Cc1cc(C)c(C2=C(OC(=O)OCC)C3(CCC(COCC)C3)NC2=O)c(Br)c1 (centres unmarked) [Example P-35]			100%	100%	100%	100%		100%	100%	100%	80%	90%	100%	100%	100%		100%	90%	100%	80%
CC#Cc1cc(C)c(C2=C(OC(=O)OCC)C3(CCC(COCCC)C3)NC2=O)c(Cl)c1 (centres unmarked) [Example P-87]	80%	80%	100%	100%	90%	100%	80%	90%	100%	100%	80%	100%	100%	100%	100%		100%			80%
CC#Cc1cc(C)c(C2=C(OC(=O)OCC)C3(CCC(COCC)C3)NC2=O)c(OC)c1 (centres unmarked) [Example P-49]			100%	100%	100%	90%		100%	100%	100%	80%	100%	100%	100%	100%	80%	100%	80%		90%
C=CCOCC1CCC2(C1)NC(=O)C(c1c(C)cc(C#CC)cc1OC)=C2O (centres unmarked) [Example I-47]			100%	100%	100%			100%	100%	90%		100%	100%	100%			100%	100%		90%
C=CCOCC1CCC2(C1)NC(=O)C(c1c(C)cc(C#CC)cc1Cl)=C2OC(=O)OCC (centres unmarked) [Example P-72]			90%	100%	100%	90%	100%	80%	80%		80%	100%	100%	100%	100%		100%	90%		
